Test results from patent US9732079B2, “Yellow reduced pyrroloquinoline quinone crystal and method of producing the same, and food, pharmaceutical, gel, composition and method of producing composition” (Mitsubishi Gas Chemical Company, Inc., priority 2013, dated 2017).

What was measured:
Format in all cases: physicochemical
[1] = Test on solubility in ethanol; settings: 40 mg in ethanol 2 mL, ultrasonically treated one minute, room temperature 30 minutes or more, absorbance at 330 nm
Experimental: [Test on Solubility in Ethanol]
The crystal (40 mg) obtained in Example 1 was added to ethanol (2 mL), and was ultrasonically treated for one minute. The solution was left at room temperature for 30 minutes or more, and thereafter the resulting precipitate was centrifuged and the resulting supernatant was diluted with dimethyl sulfoxide to analyze the concentration at an absorbance at 330 nm.
The crystal (40 mg) obtained in Example 2 was added to ethanol (2 mL), and was ultrasonically treated for one minute. The solution was left at room temperature for 30 minutes or more, and thereafter the resulting precipitate was centrifuged and the resulting supernatant was diluted with dimethyl sulfoxide to analyze the concentration at an absorbance at 330 nm.
The crystal (40 mg) obtained in Comparative Example 1 was added to ethanol (2 mL), and was ultrasonically treated for one minute. The solution was left at room temperature for 30 minutes or more, and thereafter the resulting precipitate was centrifuged and the resulting supernatant was diluted with dimethyl sulfoxide to analyze the concentration at an absorbance at 330 nm. The concentration was 1.4 mg/ML.

[2] = Test on solubility in water; settings: 30 mg in water 1 mL, ultrasonically treated one minute, room temperature 30 minutes or more, absorbance at 310 nm
Experimental: [Test on Solubility in Water]
The crystal (30 mg) obtained in Example 1 was added to water (1 mL), and was ultrasonically treated for one minute. The solution was left at room temperature for 30 minutes or more, and thereafter the resulting precipitate was centrifuged and the resulting supernatant was diluted with water to analyze the concentration at an absorbance at 310 nm. The concentration was 0.13 mg/mL.
The crystal (30 mg) obtained in Example 2 was added to water (1 mL), and was ultrasonically treated for one minute. The solution was left at room temperature for 30 minutes or more, and thereafter the resulting precipitate was centrifuged and the resulting supernatant was diluted with water to analyze the concentration at an absorbance at 310 nm. The concentration was 0.14 mg/mL.
The solid (30 mg) obtained in Comparative Example 1 was added to water (1 mL), and was ultrasonically treated for one minute. The solution was left at room temperature for 30 minutes or more, and thereafter the resulting precipitate was centrifuged and the resulting supernatant was diluted with water to analyze the concentration at an absorbance at 310 nm. The concentration was 0.019 mg/mL.

[3] = Test on stability of crystal (dispersed in water); settings: 0.2 g mixed with water 1 mL, room temperature
Experimental: [Test on Stability of Crystal (Dispersed in Water)]
The crystal (0.2 g) obtained in Example 1 was mixed with water (1 mL).
The solid (0.2 g) obtained in Comparative Example 1 was mixed with water (1 mL).
The crystal (0.2 g) obtained in Comparative Example 2 was mixed with water (1 mL).

[4] = Dispersibility in ethanol: gelation test; settings: for Homogeneity of ethanol mixture (upper and lower portions) / Appearance of ethanol mixture after standing: 20 mg in ethanol 2 mL; for Homogeneity of ethanol mixture (upper and lower portions): left at 20° C. for two to three hours; for Appearance of ethanol mixture after standing: ultrasonically treated one minute, left at 20° C. for two hours; for Appearance after adding ethanol mixture to water: 20 μL of gelled product / ethanol mixture added to water 1 mL
Experimental: [Dispersibility in Ethanol: Gelation Test]
The crystal (20 mg) obtained in Example 1 was added to ethanol (2 mL), and was ultrasonically treated for one minute. […] The gelled product was generated through the following process: the reduced PQQ crystals according to the present invention turned into fibers, and alcohol was encapsulated between these fibers in the form of a net to generate a gel.
The solid (20 mg) obtained in Comparative Example 1 was added to ethanol (2 mL), and was ultrasonically treated for one minute.

Row | SMILES | Solubility in ethanol (concentration of supernatant) [1] [µg/mL] | Solubility in water (concentration of supernatant) [2] [µg/mL] | Appearance dispersed in water after one hour [3] | Homogeneity of ethanol mixture (upper and lower portions) [4] | Appearance of ethanol mixture after standing [4] | Appearance after adding ethanol mixture to water [4] | Appearance dispersed in water after two days [3] | Dispersibility (overall conclusion) ([4]; ethanol gelation test, compared with Comparative Example 1)
1 | O=C(O)c1cc(C(=O)O)c2c(n1)c(O)c(O)c1cc(C(=O)O)[nH]c12 [Comparative Example 1, reduced pyrroloquinoline quinone] | 1400 | 19 | a solution having a black solid sedimented therein | had a difference between the upper and lower portions | a black solid was sedimented and the solution was slightly yellowed | a solution having a black solid sedimented therein |  | 
2 | O=C(O)c1cc(C(=O)O)c2c(n1)c(O)c(O)c1cc(C(=O)O)[nH]c12 [Comparative Example 2, reduced pyrroloquinoline quinone] |  |  | dark red dispersion |  |  |  | a black precipitate was generated and the solution was not homogenous | 
3 | O=C(O)c1cc(C(=O)O)c2c(n1)c(O)c(O)c1cc(C(=O)O)[nH]c12 [Example 1, reduced pyrroloquinoline quinone] | 8500 | 130 | yellow homogenous dispersion | homogenous without any difference between upper and lower portions | orange gelled product | yellow homogenous dispersion | the dispersion remained the same | significantly high dispersibility
4 | O=C(O)c1cc(C(=O)O)c2c(n1)c(O)c(O)c1cc(C(=O)O)[nH]c12 [Example 2, reduced pyrroloquinoline quinone] | 3200 | 140 |  |  |  |  |  | 
